What was measured:
Male Swiss Webster mice [1] = test: Tail suspension test; assay type: in vivo; conditions: for decrease in immobility time: cotreated 30 minutes prior to the test
Description: Compound 1, [drawing 11] was used to exemplify the effectiveness of compounds of the present invention in the tail suspension test. While not a direct model of depression, the tail suspension test is an assay that can evaluate antidepressant-like effects of drugs. […] Specifically, they decrease the amount of time the mice spend immobile after being hung upside down by their tails during the test. It is impossible to determine if a mouse is indeed depressed. However, the fact that clinically effective antidepressants reduce immobility lends predictive validity to the model. Animals
Male Swiss Webster mice (Charles River) weighing 25-35 g were used throughout this study. They were housed in groups of five per cage in an AALAC-accredited facility that was maintained on a 12-h light dark cycle (lights on at 0600 h) and had free access to food and water. Experimental groups consisted of 12 mice, randomly assigned to treatment groups. All experiments were performed between 9:00 AM and noon in accordance to the Guide for the Care and Use of Laboratory Animals as adopted and promulgated by the National Institutes of Health (Pub. 85-23, 1985).
Solutions of Compound 1 and paroxetine were freshly prepared; each dissolved in distilled water. All drugs were injected i.p. at a volume of 10 ml/kg body weight. Combination treatments were cotreated, 30 minutes prior to the test.
The procedure followed in this study was a variant of the one originally described by Steru et al. (1985). 30 minutes following treatment, the mice were suspended upside down by the tail using adhesive laboratory tape (VWR International), to a flat metal bar connected to a strain gauge within a tail suspension chamber (Med Associates). The time spent immobile during a 6-minute test session was automatically recorded. 8 mice were simultaneously tested within separate chambers. Data collected were expressed as a mean of immobility time and statistical analysis was performed using a one-way ANOVA with least significant difference (LSD) post-hoc test.

Male Swiss Webster mice [2] = conditions: general statement on clinically effective drugs; cited from earlier work

Fc1ccc([C@@H]2CCNC[C@H]2COc2ccc3c(c2)OCO3)cc1 (relative stereo) [paroxetine, trans-(−)-3-[(1,3-benzodioxol-5-yloxy)methyl]-4-(4-fluorophenyl)piperidine, reference compound]
decrease in immobility (Male Swiss Webster mice [1]; 30 mg/kg paroxetine alone, i.p., 30 minutes prior to the test, ns): 18%

c1cc2c3c(c1)[C@H]1CCC[C@H]1N3CCNC2 [Compound 1]
decrease in immobility time (Male Swiss Webster mice [1]; 1 mg/kg Compound 1 in combination with 30 mg/kg paroxetine, i.p.): 24%
decrease in immobility time (Male Swiss Webster mice [1]; 3 mg/kg Compound 1 in combination with 30 mg/kg paroxetine, i.p.): 35%
antidepressant-like effect (immobility time) in tail suspension test (Male Swiss Webster mice [1]; Compound 1 alone, 1 or 3 mg/kg i.p., 30 minutes prior to the test, 6-minute session): Neither dose of Compound 1 (1 or 3 mg/kg) produced an antidepressant-like effect alone

CNCCC(Oc1ccc(C(F)(F)F)cc1)c1ccccc1 (centres unmarked) [fluoxetine, N-methyl-3-(p-trifluoromethylphenoxy)-3-phenylpropylamine]
effectiveness in tail suspension assay (decrease of time spent immobile) (Male Swiss Webster mice [2]): effective in this assay

— patent US20070225279A1, “Therapeutic combinations for the treatment of depression” (Wyeth, priority 2006, published 2007)
